The values that follow come from publication PMC10742973 (International Journal of Molecular Sciences, 2023).

In the test the target is T1, MtMetAP1c (Mycobacterium tuberculosis, UniProt P9WK19).
T1 construct: gene map
Nature of the test: biochemical. Conditions: read-out: IC50 (μM) / MtMetAP1c + 100 μM CoCl2.

T1 sequence (P9WK19 whole entry): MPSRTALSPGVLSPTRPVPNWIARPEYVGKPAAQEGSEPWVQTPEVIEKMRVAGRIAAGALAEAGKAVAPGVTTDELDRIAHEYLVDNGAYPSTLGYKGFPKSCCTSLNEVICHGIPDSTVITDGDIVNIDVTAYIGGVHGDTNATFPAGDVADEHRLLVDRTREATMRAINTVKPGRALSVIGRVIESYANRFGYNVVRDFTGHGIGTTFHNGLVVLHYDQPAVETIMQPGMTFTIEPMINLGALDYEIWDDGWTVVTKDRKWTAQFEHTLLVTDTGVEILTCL

As to `Cc1nc(-c2ccccn2)nc(N(C)Cc2ccccc2)c1Cl` [OJT008, N-benzyl-5-chloro-N,6-dimethyl-2-pyridin-2-ylpyrimidin-4-amine], the IC50 is 11.8 ± 1.3 µM.
